{"source": "paper PMC10600247", "about": "“Impact of C- and N-terminal protection on the stability, metal chelation and antimicrobial properties of calcitermin” (Scientific Reports, 2023)", "key": {"[1]": {"tested_on": "C. albicans (ATCC 10231)", "assay": "In vitro antifungal CFU assay", "format": "cell-based, Candida albicans", "conditions": "pH 5.4; for mean CFU number ± S.D.: per 0.1 mL", "how_it_was_run": "(§1)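 Peptides (final 0.128, 0.064, 0.032 mg/mL), alone or with ZnCl2 or CuCl2 at M:L 0.9:1, were incubated with 10^3 CFU/well in PBS pH 5.4 plus 1.5% TSB at 37 °C with slow rocking for 3 and 24 h. Aliquots were plated on TSA and CFU counted after 24 h; triplicate.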"}, "[2]": {"tested_on": "E. coli (ATCC 25922)", "assay": "In vitro anti-E. coli CFU assay", "format": "cell-based, Escherichia coli", "conditions": "pH 5.4; for mean CFU number ± S.D.: per 0.1 mL", "how_it_was_run": "as §1"}, "[3]": {"conditions": "peptide 0.032 mg/mL + CuCl2 (0.9:1), 3 h"}, "[4]": {"conditions": "peptide 0.032 mg/mL + CuCl2 (0.9:1), 24 h"}, "[5]": {"conditions": "peptide 0.032 mg/mL + ZnCl2 (0.9:1), 3 h"}, "[6]": {"conditions": "peptide 0.032 mg/mL + ZnCl2 (0.9:1), 24 h"}, "[7]": {"conditions": "peptide 0.064 mg/mL + CuCl2 (0.9:1), 3 h"}, "[8]": {"conditions": "peptide 0.064 mg/mL + CuCl2 (0.9:1), 24 h"}, "[9]": {"conditions": "peptide 0.064 mg/mL + ZnCl2 (0.9:1), 3 h"}, "[10]": {"conditions": "peptide 0.064 mg/mL + ZnCl2 (0.9:1), 24 h"}, "[11]": {"conditions": "peptide 0.128 mg/mL + CuCl2 (0.9:1), 3 h"}, "[12]": {"conditions": "peptide 0.128 mg/mL + CuCl2 (0.9:1), 24 h"}, "[13]": {"conditions": "peptide 0.128 mg/mL + ZnCl2 (0.9:1), 3 h"}, "[14]": {"conditions": "peptide 0.128 mg/mL + ZnCl2 (0.9:1), 24 h"}, "[15]": {"conditions": "peptide alone 0.032 mg/mL, 24 h"}, "[16]": {"conditions": "peptide alone 0.064 mg/mL, 24 h"}, "[17]": {"conditions": "peptide alone 0.128 mg/mL, 24 h"}}, "note": "Residues, ends and D or L forms follow the SMILES beside them."}
{"compound": "CC[C@H](C)[C@H](NC(=O)[C@H](C)NC(=O)[C@@H](N)C(C)C)C(=O)N[C@@H](C)C(=O)N[C@@H](CC(C)C)C(=O)N[C@@H](CCCCN)C(=O)N[C@@H](C)C(=O)N[C@@H](C)C(=O)N[C@@H](Cc1c[nH]cn1)C(=O)N[C@@H](Cc1ccc(O)cc1)C(=O)N[C@@H](Cc1c[nH]cn1)C(=O)N[C@H](C(=O)N[C@@H](Cc1c[nH]cn1)C(=O)N[C@@H](CCCCN)C(=O)N[C@@H](CCC(=O)O)C(N)=O)[C@@H](C)O", "note": "[L3, VAIALKAAHYHTHKE-NH2] (H-VAIALKAAHYHTHKE-NH2)", "values": [{"measurement": "CFU decrease/increase with respect to untreated controls", "setting": "[1]; [3]", "value": "+23%"}, {"measurement": "mean CFU number ± S.D.", "setting": "[1]; [3]", "value": "187 ± 20", "unit": "CFU"}, {"measurement": "CFU decrease/increase with respect to untreated controls", "setting": "[1]; [4]", "value": -19, "unit": "%"}, {"measurement": "mean CFU number ± S.D.", "setting": "[1]; [4]", "value": "2,042 ± 137 CFU"}, {"measurement": "CFU decrease/increase with respect to untreated controls", "setting": "[1]; [5]", "value": "+6%"}, {"measurement": "mean CFU number ± S.D.", "setting": "[1]; [5]", "value": "160 ± 25", "unit": "CFU"}, {"measurement": "CFU decrease/increase with respect to untreated controls", "setting": "[1]; [6]", "value": "+2%"}, {"measurement": "mean CFU number ± S.D.", "setting": "[1]; [6]", "value": "2,557 ± 251 CFU"}, {"measurement": "CFU decrease/increase with respect to untreated controls", "setting": "[1]; [7]", "value": "+59%"}, {"measurement": "mean CFU number ± S.D.", "setting": "[1]; [7]", "value": "241 ± 23", "unit": "CFU"}, {"measurement": "CFU decrease/increase with respect to untreated controls", "setting": "[1]; [8]", "value": -8, "unit": "%"}, {"measurement": "mean CFU number ± S.D.", "setting": "[1]; [8]", "value": "2,315 ± 546 CFU"}, {"measurement": "CFU decrease/increase with respect to untreated controls", "setting": "[1]; [9]", "value": -2, "unit": "%"}, {"measurement": "mean CFU number ± S.D.", "setting": "[1]; [9]", "value": "148 ± 22", "unit": "CFU"}, {"measurement": "mean CFU number ± S.D.", "setting": "[1]; [10]", "value": "1,596 ± 145 CFU"}, {"measurement": "CFU decrease/increase with respect to untreated controls", "setting": "[1]; [11]", "value": "+53%"}, {"measurement": "mean CFU number ± S.D.", "setting": "[1]; [11]", "value": "230 ± 3", "unit": "CFU"}, {"measurement": "CFU decrease/increase with respect to untreated controls", "setting": "[1]; [12]", "value": -33, "unit": "%"}, {"measurement": "mean CFU number ± S.D.", "setting": "[1]; [12]", "value": "1,687 ± 111 CFU"}, {"measurement": "mean CFU number ± S.D.", "setting": "[1]; [13]", "value": "71 ± 17", "unit": "CFU"}, {"measurement": "mean CFU number ± S.D.", "setting": "[1]; [14]", "value": "605 ± 97", "unit": "CFU"}, {"measurement": "CFU decrease/increase with respect to untreated controls", "setting": "[1]; peptide alone 0.032 mg/mL, 3 h", "value": "+25%"}, {"measurement": "mean CFU number ± S.D.", "setting": "[1]; peptide alone 0.032 mg/mL, 3 h", "value": "189 ± 23", "unit": "CFU"}, {"measurement": "CFU decrease/increase with respect to untreated controls", "setting": "[1]; [15]", "value": -10, "unit": "%"}, {"measurement": "mean CFU number ± S.D.", "setting": "[1]; [15]", "value": "2,263 ± 251 CFU"}, {"measurement": "CFU decrease/increase with respect to untreated controls", "setting": "[1]; peptide alone 0.064 mg/mL, 3 h", "value": "+20%"}, {"measurement": "mean CFU number ± S.D.", "setting": "[1]; peptide alone 0.064 mg/mL, 3 h", "value": "182 ± 27", "unit": "CFU"}, {"measurement": "CFU decrease/increase with respect to untreated controls", "setting": "[1]; [16]", "value": -12, "unit": "%"}, {"measurement": "mean CFU number ± S.D.", "setting": "[1]; [16]", "value": "2,204 ± 170 CFU"}, {"measurement": "CFU decrease/increase with respect to untreated controls", "setting": "[1]; peptide alone 0.128 mg/mL, 3 h", "value": -5, "unit": "%"}, {"measurement": "mean CFU number ± S.D.", "setting": "[1]; peptide alone 0.128 mg/mL, 3 h", "value": "144 ± 11", "unit": "CFU"}, {"measurement": "CFU decrease/increase with respect to untreated controls", "setting": "[1]; [17]", "value": -14, "unit": "%"}, {"measurement": "mean CFU number ± S.D.", "setting": "[1]; [17]", "value": "2,164 ± 101 CFU"}, {"measurement": "mean CFU number ± S.D.", "setting": "[2]; [3]", "value": "509 ± 100", "unit": "CFU"}, {"measurement": "CFU decrease/increase with respect to untreated controls", "setting": "[2]; [4]", "value": "+7%"}, {"measurement": "mean CFU number ± S.D.", "setting": "[2]; [4]", "value": "184 ± 17", "unit": "CFU"}, {"measurement": "mean CFU number ± S.D.", "setting": "[2]; [5]", "value": "439 ± 91", "unit": "CFU"}, {"measurement": "CFU decrease/increase with respect to untreated controls", "setting": "[2]; [6]", "value": "+17%"}, {"measurement": "mean CFU number ± S.D.", "setting": "[2]; [6]", "value": "202 ± 23", "unit": "CFU"}, {"measurement": "mean CFU number ± S.D.", "setting": "[2]; [7]", "value": "198 ± 117", "unit": "CFU"}, {"measurement": "CFU decrease/increase with respect to untreated controls", "setting": "[2]; [8]", "value": -20, "unit": "%"}, {"measurement": "mean CFU number ± S.D.", "setting": "[2]; [8]", "value": "138 ± 48", "unit": "CFU"}, {"measurement": "mean CFU number ± S.D.", "setting": "[2]; [9]", "value": "224 ± 4", "unit": "CFU"}, {"measurement": "CFU decrease/increase with respect to untreated controls", "setting": "[2]; [10]", "value": "+8%"}, {"measurement": "mean CFU number ± S.D.", "setting": "[2]; [10]", "value": "186 ± 21", "unit": "CFU"}, {"measurement": "mean CFU number ± S.D.", "setting": "[2]; [11]", "value": "191 ± 7", "unit": "CFU"}, {"measurement": "mean CFU number ± S.D.", "setting": "[2]; [12]", "value": "102 ± 20", "unit": "CFU"}, {"measurement": "mean CFU number ± S.D.", "setting": "[2]; [13]", "value": "59 ± 9", "unit": "CFU"}, {"measurement": "CFU decrease/increase with respect to untreated controls", "setting": "[2]; [14]", "value": "+9%"}, {"measurement": "mean CFU number ± S.D.", "setting": "[2]; [14]", "value": "187 ± 17", "unit": "CFU"}, {"measurement": "CFU decrease/increase with respect to untreated controls", "setting": "[2]; peptide alone 0.032 mg/mL, 3 h", "value": -23, "unit": "%"}, {"measurement": "mean CFU number ± S.D.", "setting": "[2]; peptide alone 0.032 mg/mL, 3 h", "value": "810 ± 100", "unit": "CFU"}, {"measurement": "CFU decrease/increase with respect to untreated controls", "setting": "[2]; [15]", "value": "+17%"}, {"measurement": "mean CFU number ± S.D.", "setting": "[2]; [15]", "value": "202 ± 18", "unit": "CFU"}, {"measurement": "CFU decrease/increase with respect to untreated controls", "setting": "[2]; peptide alone 0.064 mg/mL, 3 h", "value": -30, "unit": "%"}, {"measurement": "mean CFU number ± S.D.", "setting": "[2]; peptide alone 0.064 mg/mL, 3 h", "value": "737 ± 147", "unit": "CFU"}, {"measurement": "CFU decrease/increase with respect to untreated controls", "setting": "[2]; [16]", "value": -3, "unit": "%"}, {"measurement": "mean CFU number ± S.D.", "setting": "[2]; [16]", "value": "166 ± 8", "unit": "CFU"}, {"measurement": "CFU decrease/increase with respect to untreated controls", "setting": "[2]; peptide alone 0.128 mg/mL, 3 h", "value": -15, "unit": "%"}, {"measurement": "mean CFU number ± S.D.", "setting": "[2]; peptide alone 0.128 mg/mL, 3 h", "value": "893 ± 113", "unit": "CFU"}, {"measurement": "CFU decrease/increase with respect to untreated controls", "setting": "[2]; [17]", "value": "+12%"}, {"measurement": "mean CFU number ± S.D.", "setting": "[2]; [17]", "value": "193 ± 9", "unit": "CFU"}]}
